Numbers after ± are expanded uncertainties.
Conditions: 101.33 kPa, Liquid; for speed of sound: Sing-around technique in a fixed-path interferometer; for mass density: vibrating tube

CC(C)CC(C)(C)C [2,2,4-trimethylpentane]
Conditions | mass density [kg/m3] | speed of sound [m/s]
278.15 K | 704.1 ± 0.45 | 1168.4 ± 2.1
283.15 K | 700.05 ± 0.45 | 1146.8 ± 2.1
288.15 K | 695.98 ± 0.44 | 1125.4 ± 2.1
293.15 K | 691.89 ± 0.44 | 1104.3 ± 2.1
298.15 K | 687.77 ± 0.43 | 1083.1 ± 2.1
303.15 K | 683.64 ± 0.43 | 1062.4 ± 2.1
308.15 K | 679.48 ± 0.42 | 1041.6 ± 2.1
313.15 K | 675.28 ± 0.42 | 1020.9 ± 2.1
318.15 K | 671.07 ± 0.41 | 1000.5 ± 2.1
323.15 K | 666.81 ± 0.41 | 980 ± 2.1
328.15 K | 662.52 ± 0.41 | 959.7 ± 2.1
333.15 K | 658.19 ± 0.4 | 939.7 ± 2.1
338.15 K | 653.81 ± 0.4 | 919.7 ± 2.1
343.15 K | 649.4 ± 0.39 | 900 ± 2.1

Cc1ccccc1 [toluene]
Conditions | speed of sound [m/s]
278.15 K | 1394.1 ± 2.2
283.15 K | 1371.5 ± 2.2
288.15 K | 1349.1 ± 2.2
293.15 K | 1326.9 ± 2.2
298.15 K | 1305.1 ± 2.1
303.15 K | 1283.6 ± 2.2
308.15 K | 1262.2 ± 2.2
313.15 K | 1240.9 ± 2.2
318.15 K | 1219.9 ± 2.2
323.15 K | 1198.9 ± 2.2
328.15 K | 1178.2 ± 2.2
333.15 K | 1157.7 ± 2.2
338.15 K | 1137.2 ± 2.1
343.15 K | 1117 ± 2.2
